Measured values as given in BindingDB's records for doi:10.1021/np200492k (Seoul National University, 2011).

Experiments:
[1] = molecular target: Isocitrate lyase (Candida albicans, UniProt Q9P8Q7); assay: Inhibition of Candida albicans isocitrate lyase
[2] = molecular target: T1, Sortase family protein (Staphylococcus aureus, UniProt Q9S446); assay: Inhibition of recombinant Staphylococcus aureus ATCC 6538p sortase lacking the N-terminal membrane anchor domain expressed in Escherichia coli cells TOP10 using Dabcyl-QALPETGEE-Edans substrate measured after 1 hr by fluorescence S13 spectrophotometry
T1 sequence (Q9S446 whole entry): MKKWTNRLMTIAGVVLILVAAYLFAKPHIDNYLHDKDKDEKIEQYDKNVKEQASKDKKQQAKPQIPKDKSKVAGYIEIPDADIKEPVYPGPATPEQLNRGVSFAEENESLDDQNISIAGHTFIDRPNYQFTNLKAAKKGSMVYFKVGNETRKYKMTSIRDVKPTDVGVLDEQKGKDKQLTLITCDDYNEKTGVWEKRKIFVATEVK

Isocitrate lyase, sequence (Q9P8Q7 whole entry, the tested form may be a part): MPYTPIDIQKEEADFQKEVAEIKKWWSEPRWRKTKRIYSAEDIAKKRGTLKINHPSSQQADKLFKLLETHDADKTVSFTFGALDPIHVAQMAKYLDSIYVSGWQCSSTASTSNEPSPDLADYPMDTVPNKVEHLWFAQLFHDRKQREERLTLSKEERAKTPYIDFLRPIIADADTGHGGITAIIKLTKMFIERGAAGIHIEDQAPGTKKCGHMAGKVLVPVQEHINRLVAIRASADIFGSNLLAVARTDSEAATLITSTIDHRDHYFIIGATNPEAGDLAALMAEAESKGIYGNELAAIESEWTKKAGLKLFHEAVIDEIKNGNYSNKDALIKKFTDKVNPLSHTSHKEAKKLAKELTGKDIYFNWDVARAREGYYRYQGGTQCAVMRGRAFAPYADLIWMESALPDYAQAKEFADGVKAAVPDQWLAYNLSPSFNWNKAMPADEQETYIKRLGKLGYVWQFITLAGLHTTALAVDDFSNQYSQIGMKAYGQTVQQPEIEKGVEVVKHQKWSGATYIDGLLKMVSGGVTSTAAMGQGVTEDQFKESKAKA

Structure (SMILES) | IC50 [1] [µM] | IC50 [2] [µM]
CC1(C)CCC[C@]2(C)[C@H]3CC/C(=C\OS(=O)(=O)O)[C@H](CCc4ccoc4)[C@@]3(C)CC[C@@H]12 | 17 | –
O=C(O)c1cc[c]([Hg][OH])cc1 | – | 116
